Results from patent US20230092890A1, “1, 3, 4-Oxadiazole derivative compounds as histone deacetylase 6 inhibitor, and the pharmaceutical composition comprising the same” (Chong Kun Dang Pharmaceutical Corp., priority 2019, published 2023).

Columns and labels:
[1] = target: T1, HDAC1 (Homo sapiens, UniProt Q13547); test: HDAC enzyme activity inhibition (in vitro), HDAC1 Fluorimetric Drug Discovery Assay Kit; assay type: biochemical; details: samples at 100, 1000 and 10000 nM; 37° C. 60 minutes; fluorescence Ex 390, Em 460; read-out: HDAC1 IC50
T1 construct: purchased Enzolifesciences BML-AK511
T1 sequence (Q13547 whole entry): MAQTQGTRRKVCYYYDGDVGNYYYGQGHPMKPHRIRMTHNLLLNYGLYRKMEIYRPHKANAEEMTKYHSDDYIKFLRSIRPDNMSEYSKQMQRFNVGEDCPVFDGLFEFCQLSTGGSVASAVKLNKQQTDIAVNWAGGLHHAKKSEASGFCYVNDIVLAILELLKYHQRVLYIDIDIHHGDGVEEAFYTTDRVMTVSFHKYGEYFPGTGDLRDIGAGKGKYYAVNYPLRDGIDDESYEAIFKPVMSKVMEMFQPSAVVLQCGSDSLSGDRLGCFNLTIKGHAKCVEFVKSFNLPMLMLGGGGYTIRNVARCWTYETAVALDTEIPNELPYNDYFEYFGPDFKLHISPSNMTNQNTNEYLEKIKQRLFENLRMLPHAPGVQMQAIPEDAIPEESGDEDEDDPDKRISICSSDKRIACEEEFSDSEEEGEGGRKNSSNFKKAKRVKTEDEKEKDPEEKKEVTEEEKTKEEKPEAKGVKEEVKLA
Method in brief: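 Compounds at 100, 1000, 10000 nM (HDAC1) or 0.1, 1, 10, 100, 1000 nM (HDAC6); 37° C, 60 min; developer, 37° C, 30 min; fluorescence Ex 390/Em 460.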

[2] = target: T2, HDAC6 human recombinant (Homo sapiens, UniProt Q9UBN7); test: HDAC enzyme activity inhibition (in vitro), HDAC6 assay; assay type: biochemical; details: samples at 0.1, 1, 10, 100 and 1000 nM; 37° C. 60 minutes; fluorescence Ex 390, Em 460; read-out: HDAC6 IC50
T2 construct: purchased Calbiochem 382180
T2 sequence (Q9UBN7 1-1215): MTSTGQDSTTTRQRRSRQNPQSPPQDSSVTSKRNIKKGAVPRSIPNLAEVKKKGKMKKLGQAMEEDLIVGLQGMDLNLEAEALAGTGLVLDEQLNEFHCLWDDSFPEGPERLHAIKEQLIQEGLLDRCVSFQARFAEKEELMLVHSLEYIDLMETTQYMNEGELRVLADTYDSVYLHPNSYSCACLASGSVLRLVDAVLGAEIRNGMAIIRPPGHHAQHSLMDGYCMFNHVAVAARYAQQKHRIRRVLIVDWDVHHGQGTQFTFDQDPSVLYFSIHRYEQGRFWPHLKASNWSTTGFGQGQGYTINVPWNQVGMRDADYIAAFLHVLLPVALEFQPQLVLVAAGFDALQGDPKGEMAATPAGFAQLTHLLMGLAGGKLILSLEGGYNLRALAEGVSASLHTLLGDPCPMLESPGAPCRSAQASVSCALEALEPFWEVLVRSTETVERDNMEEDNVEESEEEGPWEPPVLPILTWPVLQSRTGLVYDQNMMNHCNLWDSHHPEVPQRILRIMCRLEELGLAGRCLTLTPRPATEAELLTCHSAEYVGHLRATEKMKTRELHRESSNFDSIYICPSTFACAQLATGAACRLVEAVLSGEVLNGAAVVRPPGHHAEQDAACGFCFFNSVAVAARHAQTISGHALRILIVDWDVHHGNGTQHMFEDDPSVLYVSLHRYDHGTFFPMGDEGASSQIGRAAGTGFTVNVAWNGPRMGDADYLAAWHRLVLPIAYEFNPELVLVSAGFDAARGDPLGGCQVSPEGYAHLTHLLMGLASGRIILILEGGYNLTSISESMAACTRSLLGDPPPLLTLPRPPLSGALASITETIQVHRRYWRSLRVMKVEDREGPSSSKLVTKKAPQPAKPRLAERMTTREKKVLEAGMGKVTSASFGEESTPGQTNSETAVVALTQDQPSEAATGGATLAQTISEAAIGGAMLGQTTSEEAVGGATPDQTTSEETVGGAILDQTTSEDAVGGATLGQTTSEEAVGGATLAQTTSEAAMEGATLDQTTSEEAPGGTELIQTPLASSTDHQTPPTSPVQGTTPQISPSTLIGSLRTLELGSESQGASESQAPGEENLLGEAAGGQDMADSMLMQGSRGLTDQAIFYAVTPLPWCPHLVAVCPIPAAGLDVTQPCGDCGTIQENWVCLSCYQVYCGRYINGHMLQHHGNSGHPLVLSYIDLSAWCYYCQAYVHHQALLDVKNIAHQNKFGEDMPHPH
Method in brief: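 HDAC6 human recombinant enzyme with fluorimetric substrate; […]. Reaction 60 min at 37° C, then developer 30 min at 37° C; fluorescence read at Ex 390/Em 460.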

Compound | IC50 [1] [µM] | IC50 [2] [µM]
O=c1n(Cc2ccc(-c3nnc(C(F)F)o3)cn2)c2cc(F)c(N3CCN(Cc4cccc5[nH]ccc45)CC3)cc2n1C1COC1 [Compound 322, 5-(4-((1H-indole-4-yl)methyl)piperazine-1-yl)-1-((5-(5-(difluoromethyl)-1,3,4-oxadiazole-2-yl)pyridine-2-yl)methyl)-6-fluoro-3-(oxetan-3-yl)-1,3-dihydro-2H-benzo[d]imidazole-2-one] | > 10 | 0.029
O=c1n(Cc2ccc(-c3nnc(C(F)F)o3)cn2)c2cc(F)c(N3CCN(Cc4cn[nH]c4)CC3)cc2n1C1COC1 [Compound 323, 5-(4-((1H-pyrazole-4-yl)methyl)piperazine-1-yl)-1-((5-(5-(difluoromethyl)-1,3,4-oxadiazole-2-yl)pyridine-2-yl)methyl)-6-fluoro-3-(oxetan-3-yl)-1,3-dihydro-2H-benzo[d]imidazole-2-one] | > 10 | 0.035
O=c1n(Cc2ccc(-c3nnc(C(F)F)o3)cn2)c2cc(F)c(N3CCN(Cc4cccnc4)CC3)cc2n1C1COC1 [Compound 324, 1-((5-(5-(difluoromethyl)-1,3,4-oxadiazole-2-yl)pyridine-2-yl)methyl)-6-fluoro-3-(oxetan-3-yl)-5-(4-(pyridine-3-ylmethyl)piperazine-1-yl)-1,3-dihydro-2H-benzo[d]imidazole-2-one] | > 10 | 0.042
O=c1n(Cc2ccc(-c3nnc(C(F)F)o3)cn2)c2cc(F)c(N3CCN(CC(F)(F)F)CC3)cc2n1C1COC1 [Compound 325] | > 10 | 0.07
CN(C)CCn1c(=O)n(Cc2ccc(-c3nnc(C(F)F)o3)cn2)c2cc(F)c(-c3cccnc3)cc21 [Compound 326, 1-((5-(5-(difluoromethyl)-1,3,4-oxadiazole-2-yl)pyridine-2-yl)methyl)-3-(2-(dimethylamino)ethyl)-6-fluoro-5-(pyridine-3-yl)-1,3-dihydro-2H-benzo[d]imidazole-2-one] | > 10 | 0.16
CN(C)CCn1c(=O)n(Cc2ccc(-c3nnc(C(F)F)o3)cn2)c2cc(F)c(-c3ccncc3)cc21 [Compound 327, 1-((5-(5-(difluoromethyl)-1,3,4-oxadiazole-2-yl)pyridine-2-yl)methyl)-3-(2-(dimethylamino)ethyl)-6-fluoro-5-(pyridine-4-yl)-1,3-dihydro-2H-benzo[d]imidazole-2-one] | > 10 | 0.058
O=c1n(Cc2ccc(-c3nnc(C(F)F)o3)cn2)c2cc(F)c(N3CCN(C4COC4)CC3)cc2n1-c1cccnc1 [Compound 329, 1-((5-(5-(difluoromethyl)-1,3,4-oxadiazole-2-yl)pyridine-2-yl)methyl)-6-fluoro-5-(4-(oxetan-3-yl)piperazine-1-yl)-3-(pyridine-3-yl)-1,3-dihydro-2H-benzo[d]imidazole-2-one] | > 10 | 0.127
CN1CCC(c2ccc3c(c2)sc(=O)n3Cc2ccc(-c3nnc(C(F)F)o3)cn2)CC1 [Compound 331, 3-((5-(5-(difluoromethyl)-1,3,4-oxadiazole-2-yl)pyridine-2-yl)methyl)-6-(1-methylpiperidine-4-yl)benzo[d]thiazole-2(3H)-one] | > 10 | 0.061
O=c1sc2cc(-c3ccc(CN4CCOCC4)nc3)ccc2n1Cc1ccc(-c2nnc(C(F)F)o2)cn1 [Compound 333, 3-((5-(5-(difluoromethyl)-1,3,4-oxadiazole-2-yl)pyridine-2-yl)methyl)-6-(6-(morpholinomethyl)pyridine-3-yl)benzo[d]thiazole-2(3H)-one] | > 10 | 0.038

Second part, the compound after the results:

IC50 [1] [µM] | IC50 [2] [µM] | Compound
> 10 | 0.085 | CN1CCN(c2cc3c(cc2F)n(Cc2ccc(-c4nnc(C(F)F)o4)cn2)c(=O)n3-c2cccnc2)CC1 [Compound 328, 1-((5-(5-(difluoromethyl)-1,3,4-oxadiazole-2-yl)pyridine-2-yl)methyl)-6-fluoro-5-(4-methylpiperazine-1-yl)-3-(pyridine-3-yl)-1,3-dihydro-2H-benzo[d]imidazole-2-one]
> 10 | 0.022 | Cn1c(=O)n(Cc2ccc(-c3nnc(C(F)F)o3)cn2)c2cc(F)c(-c3ccc(CN4CCOCC4)nc3)cc21 [Compound 330, 1-((5-(5-(difluoromethyl)-1,3,4-oxadiazole-2-yl)pyridine-2-yl)methyl)-6-fluoro-3-methy 1-5-(6-(morpholinomethyl)pyridine-3-yl)-1,3-dihydro-2H-benzo[d]imidazole-2-one]
> 10 | 0.043 | O=c1oc2cc(-c3ccc(CN4CCOCC4)nc3)c(F)cc2n1Cc1ccc(-c2nnc(C(F)F)o2)cn1 [Compound 332, 3-((5-(5-(difluoromethyl)-1,3,4-oxadiazole-2-yl)pyridine-2-yl)methyl)-5-fluoro-6-(6-(morpholinomethyl)pyridine-3-yl)benzo[d]oxazole-2(3H)-one]
> 10 | 0.064 | CN1CCC(c2cc3oc(=O)n(Cc4ccc(-c5nnc(C(F)F)o5)cn4)c3cc2F)CC1 [Compound 334, 3-((5-(5-(difluoromethyl)-1,3,4-oxadiazole-2-yl)pyridine-2-yl)methyl)-5-fluoro-6-(1-methylpiperidine-4-yl)benzo[d]oxazole-2(3H)-one]
> 10 | 0.075 | CC(C)N1CCC(c2cc3oc(=O)n(Cc4ccc(-c5nnc(C(F)F)o5)cn4)c3cc2F)CC1 [Compound 335, 3-((5-(5-(difluoromethyl)-1,3,4-oxadiazole-2-yl)pyridine-2-yl)methyl)-5-fluoro-6-(1-isopropylpiperidine-4-yl)benzo[d]oxazole-2(3H)-one]
> 10 | 0.044 | O=c1oc2cc(C3CCN(C4COC4)CC3)c(F)cc2n1Cc1ccc(-c2nnc(C(F)F)o2)cn1 [Compound 336, 3-((5-(5-(difluoromethyl)-1,3,4-oxadiazole-2-yl)pyridine-2-yl)methyl)-5-fluoro-6-(1-(oxetan-3-yl)piperidine-4-yl)benzo[d]oxazole-2(3H)-one]
> 10 | 0.672 | CC(C)(C)OC(=O)N1CCN(c2ncc(-c3cc4oc(=O)n(Cc5ccc(-c6nnc(C(F)F)o6)cn5)c4cc3F)cn2)CC1 [Compound 337, tert-butyl 4-(5-(3-((5-(5-(difluoromethyl)-1,3,4-oxadiazole-2-yl)pyridine-2-yl)methyl)-5-fluoro-2-oxo-2,3-dihydrobenzo[d]oxazole-6-yl)pyrimidine-2-yl)piperazine-1-carboxylate]
> 10 | 0.047 | CN1CCN(c2ncc(-c3cc4oc(=O)n(Cc5ccc(-c6nnc(C(F)F)o6)cn5)c4cc3F)cn2)CC1 [Compound 338, 3-((5-(5-(difluoromethyl)-1,3,4-oxadiazole-2-yl)pyridine-2-yl)methyl)-5-fluoro-6-(2-(4-methylpiperazine-1-yl)pyrimidine-5-yl)benzo[d]oxazole-2(3H)-one]
> 10 | 0.052 | O=c1oc2cc(-c3cnc(N4CCN(C5COC5)CC4)nc3)c(F)cc2n1Cc1ccc(-c2nnc(C(F)F)o2)cn1 [Compound 339, 3-((5-(5-(difluoromethyl)-1,3,4-oxadiazole-2-yl)pyridine-2-yl)methyl)-5-fluoro-6-(2-(4-(oxetan-3-yl)piperazine-1-yl)pyrimidine-5-yl)benzo[d]oxazole-2(3H)-one]
> 10 | 0.065 | Cn1c(=O)n(Cc2ccc(-c3nnc(C(F)F)o3)cc2F)c2cc(F)c(-c3ccc(CN4CCOCC4)nc3)cc21 [Compound 340, 1-(4-(5-(difluoromethyl)-1,3,4-oxadiazole-2-yl)-2-fluorobenzyl)-6-fluoro-3-methyl-5-(6-(morpholinomethyl)pyridine-3-yl)-1,3-dihydro-2H-benzo[d]imidazole-2-one]
